# Assays:
# Format in all cases: in vivo
# barnyardgrass [1] = assay: Test Example 2: herbicidal effects during the vegetation period under submerged conditions; details: treatment during the vegetation period under submerged conditions; dose 2.52 g/a
# Procedure, shortened: (§1)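 Barnyardgrass, bulrush and ducksalad were co-sown in alluvial soil flooded to 4 cm and grown in a greenhouse at 25 to 30° C. At the 1- or 2-leaf stage, water-diluted emulsifiable concentrates went onto the water surface at set doses (g/a). Herbicidal effect was scored three weeks later on a graded scale.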
# ducksalad [2] = assay: as above; details: treatment during the vegetation period under submerged conditions; dose 2.52 g/a
# Procedure, shortened: as §1
# bulrush [3] = assay: as above; details: treatment during the vegetation period under submerged conditions; dose 2.52 g/a
# Procedure, shortened: as §1
# giant foxtail [4] = assay: Test Example 3: herbicidal effects in soil treatment; details: dose 3.2 g/a
# Procedure, shortened: (§2)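 Seeds were sown in sterilized diluvial soil and covered with about 1.5 cm of soil. Compounds, formulated as emulsifiable concentrates and diluted with water, were sprayed evenly over the soil surface at set doses in g/a. Herbicidal effect was scored on a rating scale three weeks later.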
# velvetleaf [5] = assay: as above; details: dose 3.2 g/a
# Procedure, shortened: as §2
# posumbu knotweed [6] = assay: as above; details: dose 3.2 g/a
# Procedure, shortened: as §2
# barnyardgrass [7] = assay: as above; details: dose 3.2 g/a
# Procedure, shortened: as §2
# common ragweed [8] = assay: as above; details: dose 3.2 g/a
# Procedure, shortened: as §2
# common lambsquater [9] = assay: as above; details: dose 3.2 g/a
# Procedure, shortened: as §2
# Italian ryegrass [10] = assay: as above; details: dose 3.2 g/a
# Procedure, shortened: as §2
# beadstraw [11] = assay: as above; details: dose 3.2 g/a
# Procedure, shortened: as §2
# common chickweed [12] = assay: as above; details: dose 3.2 g/a
# Procedure, shortened: as §2
# wild oat [13] = assay: as above; details: dose 3.2 g/a
# Procedure, shortened: as §2
# water foxtail [14] = assay: as above; details: dose 3.2 g/a
# Procedure, shortened: as §2
# large crabgrass [15] = assay: as above; details: dose 3.2 g/a
# Procedure, shortened: as §2
# redroot pigweed [16] = assay: as above; details: dose 3.2 g/a
# Procedure, shortened: as §2
# transplanted rice = assay: Test Example 1: preemergence treatment under submerged conditions, effect on crop; details: dose 2.52 g/a
# Procedure, shortened: (§3)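 Alluvial soil was flooded to 4 cm, sown with barnyardgrass, bulrush and ducksalad, and planted with 2.5-leaf rice seedlings. On the seeding day, water-diluted emulsifiable concentrates were applied to the water surface at set doses (g/a). After three weeks in a 25 to 30° C. greenhouse, mortality was scored 0–5.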
# giant foxtail [17] = assay: Test Example 4: herbicidal effect in foliage treatment; details: dose 3.2 g/a, three weeks after the application
# Procedure, shortened: (§4)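 Doses are given in grams per are of applied compound, sprayed as water-diluted emulsifiable concentrate onto foliage of 14-day-old plants grown at 25 to 30° C. Herbicidal activity was assessed visually on a rating scale after three weeks.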
# velvetleaf [18] = assay: as above; details: dose 3.2 g/a, three weeks after the application
# Procedure, shortened: as §4
# posumbu knotweed [19] = assay: as above; details: dose 3.2 g/a, three weeks after the application
# Procedure, shortened: as §4
# barnyardgrass [20] = assay: as above; details: dose 3.2 g/a, three weeks after the application
# Procedure, shortened: as §4
# common ragweed [21] = assay: as above; details: dose 3.2 g/a, three weeks after the application
# Procedure, shortened: as §4
# common lambsquater [22] = assay: as above; details: dose 3.2 g/a, three weeks after the application
# Procedure, shortened: as §4
# Italian ryegrass [23] = assay: as above; details: dose 3.2 g/a, three weeks after the application
# Procedure, shortened: as §4
# beadstraw [24] = assay: as above; details: dose 3.2 g/a, three weeks after the application
# Procedure, shortened: as §4
# common chickweed [25] = assay: as above; details: dose 3.2 g/a, three weeks after the application
# Procedure, shortened: as §4
# wild oat [26] = assay: as above; details: dose 3.2 g/a, three weeks after the application
# Procedure, shortened: as §4
# water foxtail [27] = assay: as above; details: dose 3.2 g/a, three weeks after the application
# Procedure, shortened: as §4
# large crabgrass [28] = assay: as above; details: dose 3.2 g/a, three weeks after the application
# Procedure, shortened: as §4
# redroot pigweed [29] = assay: as above; details: dose 3.2 g/a, three weeks after the application
# Procedure, shortened: as §4
# barnyardgrass [30] = assay: Test Example 1: herbicidal effects in preemergence treatment under submerged conditions; details: dose 2.52 g/a
# Procedure, shortened: as §3
# ducksalad [31] = assay: as above; details: dose 2.52 g/a
# Procedure, shortened: as §3
# bulrush [32] = assay: as above; details: dose 2.52 g/a
# Procedure, shortened: as §3
# barnyardgrass [33] = assay: Comparative Example 1: herbicidal effects in preemergence treatment on barnyardgrass under submerged conditions; details: applied to water surface on the day of seeding, three weeks after application
# From the text: Comparative Example 1 Test on the Herbicidal Effects in Preemergence Treatment on Barnyardgrass Under Submerged Conditions Alluvial soil was put in 1/30000-are styrol cups and admixed with water so that it was submerged at a depth of 4 cm. In each cup, seeds of barnyardgrass were sown, and on the same day as the seeding, emulsifiable concentrates containing compounds of the present invention formulated in accordance with Formulation Example 2 were applied to the water surfaces at predetermined doses after diluted with water. The cups were placed in a greenhouse at 25 to 30° C. to grow the plants. Three weeks after the application, the herbicidal effects against barnyardgrass were determined on the following evaluation scale. The symbol A in the table means barnyardgrass.
# barnyardgrass [34] = assay: Comparative Example 2: herbicidal effects on barnyardgrass during the vegetation period under submerged conditions; details: applied to water surface at the 2- or 2.5-leaf stage, three weeks after application
# Description: Comparative Example 2 Test on the Herbicidal Effects on Barnyardgrass During the Vegetation Period Under Submerged Conditions Alluvial soil was put in 1/30000-are styrol cups and admixed with water so that it was submerged at a depth of 4 cm. In each cup, seeds of barnyardgrass were sown, and the cups were placed in a greenhouse at 25 to 30° C. to grow the plants. When the barnyardgrass reached the 2- or 2.5-leaf stage, emulsifiable concentrates containing compounds of the present invention and the comparative compounds formulated in accordance with Formulation Example 2 were applied to the water surfaces at predetermined doses after diluted with water. Three weeks after the application, the herbicidal effects were determined on the same evaluation scale as in Test Example 1. The symbol A in the table is the same as defined above.
structure (smiles),measurement,setting,value
CCOC(=O)N(c1ccccc1CN1COCN(CC)C1=O)S(=O)(=O)C(F)(F)F [IV-6],"A: barnyardgrass, herbicidal effect (evaluation scale 0-5)",barnyardgrass [1],5 (mortality of 90% or above (nearly complete death))
same,"C: ducksalad, herbicidal effect (evaluation scale 0-5)",ducksalad [2],5 (mortality of 90% or above (nearly complete death))
same,"B: bulrush, herbicidal effect (evaluation scale 0-5)",bulrush [3],5 (mortality of 90% or above (nearly complete death))
same,"herbicidal effect, E: giant foxtail",giant foxtail [4],5 (mortality of 90% or above (nearly complete death))
same,"herbicidal effect, I: velvetleaf",velvetleaf [5],5 (mortality of 90% or above (nearly complete death))
same,"herbicidal effect, M: posumbu knotweed",posumbu knotweed [6],0 (mortality of less than 5% (almost ineffective))
same,"herbicidal effect, A: barnyardgrass",barnyardgrass [7],5 (mortality of 90% or above (nearly complete death))
same,"herbicidal effect, J: common ragweed",common ragweed [8],0 (mortality of less than 5% (almost ineffective))
same,"herbicidal effect, L: common lambsquater",common lambsquater [9],0 (mortality of less than 5% (almost ineffective))
same,"herbicidal effect, H: Italian ryegrass",Italian ryegrass [10],0 (mortality of less than 5% (almost ineffective))
same,"herbicidal effect, O: beadstraw",beadstraw [11],4 (mortality of at least 70% and less than 90%)
same,"herbicidal effect, N: common chickweed",common chickweed [12],4 (mortality of at least 70% and less than 90%)
same,"herbicidal effect, F: wild oat",wild oat [13],0 (mortality of less than 5% (almost ineffective))
same,"herbicidal effect, G: water foxtail",water foxtail [14],5 (mortality of 90% or above (nearly complete death))
same,"herbicidal effect, D: large crabgrass",large crabgrass [15],5 (mortality of 90% or above (nearly complete death))
same,"herbicidal effect, K: redroot pigweed",redroot pigweed [16],1 (mortality of at least 5% and less than 20%)
same,"a: transplanted rice, effect on crop (evaluation scale 0-5)",transplanted rice,0 (mortality of less than 5% (almost ineffective))
same,"E: giant foxtail, herbicidal effect",giant foxtail [17],4 (mortality of at least 70% and less than 90%)
same,"I: velvetleaf, herbicidal effect",velvetleaf [18],5 (mortality of 90% or above (nearly complete death))
same,"M: posumbu knotweed, herbicidal effect",posumbu knotweed [19],0 (mortality of less than 5% (almost ineffective))
same,"A: barnyardgrass, herbicidal effect",barnyardgrass [20],4 (mortality of at least 70% and less than 90%)
same,"J: common ragweed, herbicidal effect",common ragweed [21],3 (mortality of at least 40% and less than 70%)
same,"L: common lambsquater, herbicidal effect",common lambsquater [22],3 (mortality of at least 40% and less than 70%)
same,"H: Italian ryegrass, herbicidal effect",Italian ryegrass [23],2 (mortality of at least 20% and less than 40%)
same,"O: beadstraw, herbicidal effect",beadstraw [24],4 (mortality of at least 70% and less than 90%)
same,"N: common chickweed, herbicidal effect",common chickweed [25],4 (mortality of at least 70% and less than 90%)
same,"F: wild oat, herbicidal effect",wild oat [26],0 (mortality of less than 5% (almost ineffective))
same,"G: water foxtail, herbicidal effect",water foxtail [27],5 (mortality of 90% or above (nearly complete death))
same,"D: large crabgrass, herbicidal effect",large crabgrass [28],4 (mortality of at least 70% and less than 90%)
same,"K: redroot pigweed, herbicidal effect",redroot pigweed [29],0 (mortality of less than 5% (almost ineffective))
same,"A: barnyardgrass, herbicidal effect (evaluation scale 0-5)",barnyardgrass [30],5 (mortality of 90% or above (nearly complete death))
same,"C: ducksalad, herbicidal effect (evaluation scale 0-5)",ducksalad [31],5 (mortality of 90% or above (nearly complete death))
same,"B: bulrush, herbicidal effect (evaluation scale 0-5)",bulrush [32],5 (mortality of 90% or above (nearly complete death))
"CC(C)COC(O)N(c1ccccc1CN1CCCOC1=O)S(=O)(=O)C(F)(F)F (stereo not drawn) [a, reference compound]","herbicidal effect, A (barnyardgrass)",barnyardgrass [33]; dose 0.16 g/a,0 (mortality of less than 5% (almost ineffective))
same,"herbicidal effect, A (barnyardgrass)",barnyardgrass [33]; dose 0.64 g/a,5 (mortality of 90% or above (nearly complete death))
same,"herbicidal effect, A (barnyardgrass)",barnyardgrass [33]; dose 2.52 g/a,5 (mortality of 90% or above (nearly complete death))
same,"herbicidal effect, A (barnyardgrass)",barnyardgrass [34]; dose 0.16 g/a,0 (mortality of less than 5% (almost ineffective))
same,"herbicidal effect, A (barnyardgrass)",barnyardgrass [34]; dose 0.64 g/a,0 (mortality of less than 5% (almost ineffective))
same,"herbicidal effect, A (barnyardgrass)",barnyardgrass [34]; dose 2.52 g/a,5 (mortality of 90% or above (nearly complete death))
